According to US20250145566A1, “PHENETHYLAMINE DERIVATIVES, COMPOSITIONS, AND METHODS OF USE” (Cybin IRL Limited, priority 2022, published 2025):

Legend:
5-HT2A (h) = molecular target: T1, 5-HT2A (h) (Homo sapiens, UniProt P28223); experiment: 5-HT2A (h) agonist radioligand [125I](±)DOI binding; details: at 10 μM
T1 construct: expressed in transfected cells; host or cells: HEK-293 cells

5-HT2C (h) = molecular target: T2, 5-HT2C (h) (Homo sapiens, UniProt P28335); experiment: 5-HT2C (h) agonist radioligand [125I](±)DOI binding; details: at 10 μM
T2 construct: expressed in transfected cells; host or cells: HEK-293 cells
T2 sequence (P28335 33-458): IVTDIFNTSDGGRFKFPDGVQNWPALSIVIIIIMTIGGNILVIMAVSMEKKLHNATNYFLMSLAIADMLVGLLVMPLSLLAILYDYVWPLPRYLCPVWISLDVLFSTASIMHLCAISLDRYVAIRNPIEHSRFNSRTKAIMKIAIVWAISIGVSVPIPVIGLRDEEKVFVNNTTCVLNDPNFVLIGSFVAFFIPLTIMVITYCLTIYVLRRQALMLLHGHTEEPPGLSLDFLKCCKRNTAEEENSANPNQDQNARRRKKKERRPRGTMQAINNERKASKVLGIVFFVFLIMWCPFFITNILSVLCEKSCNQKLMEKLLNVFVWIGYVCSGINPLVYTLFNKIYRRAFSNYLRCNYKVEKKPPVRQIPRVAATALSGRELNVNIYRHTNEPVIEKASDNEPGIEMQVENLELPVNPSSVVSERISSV
Experimental: Samples were then analyzed as described above.

T1 sequence (P28223 whole entry): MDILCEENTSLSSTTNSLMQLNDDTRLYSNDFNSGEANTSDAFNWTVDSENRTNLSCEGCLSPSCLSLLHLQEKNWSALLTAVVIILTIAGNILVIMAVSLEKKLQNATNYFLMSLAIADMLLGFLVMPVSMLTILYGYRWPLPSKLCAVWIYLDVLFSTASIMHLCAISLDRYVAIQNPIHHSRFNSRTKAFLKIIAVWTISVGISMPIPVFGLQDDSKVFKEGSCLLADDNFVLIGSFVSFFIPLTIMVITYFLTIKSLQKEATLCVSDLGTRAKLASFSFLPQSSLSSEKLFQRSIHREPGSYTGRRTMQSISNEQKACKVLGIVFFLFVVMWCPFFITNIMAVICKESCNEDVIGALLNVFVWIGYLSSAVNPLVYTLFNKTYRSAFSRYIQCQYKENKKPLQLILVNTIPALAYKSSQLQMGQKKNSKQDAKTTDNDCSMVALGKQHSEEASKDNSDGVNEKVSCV

NCCc1ccc2c(c1)OCS2 [II-14, 2-(benzo[d][1,3]oxathiol-6-yl)ethan-1-amine]
Binding 5-HT2A (agonist radioligand), % competition (5-HT2A (h)): 93.9% competition | Binding 5-HT2C (agonist radioligand), % competition (5-HT2C (h)): 94.4% competition
